# Results reported in US20080312250A1, “Combination Comprising a Bcrp Inhibitor and 4- (4-Methylpiperazin-1-Ylmethyl)-N-[4-Methyl-3- (4-Pyridin-3-Yl) Pyrimidin-2-Ylamino) Phenyl] -Benzamide” (THE NETHERLANDS CANCER INSTITUTE, priority 2005, published 2008).
# Key:
# [1] = system: P-gp; details: single dose of elacridar; approximately; cited from earlier work
# [2] = molecular target: T1, Bcrp1 (Mus musculus, UniProt Q7TMS5); assay: Effect of pantoprazole and elacridar on Bcrp1-mediated transport of Compound I in MDCKII transfected cells; assay type: in vitro ADME, murine; details: 1 μM Compound I, zosuquidar 5 μM added for pantoprazole, data not shown
# T1 construct: expressed in transfected cells; host or cells: MDCKII (Madin-Darby canine kidney strain II) cells, stably transfected
# T1 sequence (Q7TMS5 1-657): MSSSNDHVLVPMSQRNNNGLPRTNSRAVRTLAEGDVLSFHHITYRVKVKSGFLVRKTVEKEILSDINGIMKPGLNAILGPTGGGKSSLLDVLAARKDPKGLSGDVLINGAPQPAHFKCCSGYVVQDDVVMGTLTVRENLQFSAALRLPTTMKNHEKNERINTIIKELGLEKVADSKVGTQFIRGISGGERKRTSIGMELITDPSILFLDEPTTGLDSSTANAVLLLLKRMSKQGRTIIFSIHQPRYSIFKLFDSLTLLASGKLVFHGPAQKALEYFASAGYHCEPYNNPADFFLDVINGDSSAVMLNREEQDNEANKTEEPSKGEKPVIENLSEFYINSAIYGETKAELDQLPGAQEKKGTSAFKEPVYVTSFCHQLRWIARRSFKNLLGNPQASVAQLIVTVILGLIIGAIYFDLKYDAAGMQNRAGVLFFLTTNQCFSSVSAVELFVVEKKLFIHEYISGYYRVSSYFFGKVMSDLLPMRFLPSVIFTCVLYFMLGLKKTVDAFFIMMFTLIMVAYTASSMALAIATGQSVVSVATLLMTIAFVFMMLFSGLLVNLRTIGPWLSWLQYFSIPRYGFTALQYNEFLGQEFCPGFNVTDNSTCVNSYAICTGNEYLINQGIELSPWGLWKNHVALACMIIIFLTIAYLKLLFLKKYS
# Experimental: Transport across MDCKII monolayers. The MDCKII (Madin-Darby canine kidney strain II) cells are cultured in Dulbecco's Modified Eagle's Medium supplemented with 10% fetal calf serum and 100 units penicillin/streptomycin per ml. Cells are grown at 37° C. with 5% CO2 under humidifying conditions. […] Animals. […] Mice are housed and handled according to institutional guidelines complying with Dutch legislation.
# In the experiments in which the effect of pantoprazole is studied, the P-gp inhibitor zosuquidar (5 μM) is added to exclude any contribution of P-gp.
# [3] = molecular target: T2, murine Bcrp1 (Mus musculus, UniProt Q7TMS5); assay: Transport of Compound I across MDCKII-Bcrp1 monolayers; assay type: in vitro ADME
# T2 construct: expressed in transfected cells; host or cells: MDCKII (Madin-Darby canine kidney strain II) cells, stably transfected
# T2 sequence (Q7TMS5 1-657): T1 sequence (Q7TMS5 1-657)
# Experimental: Transport across MDCKII monolayers. […] Animals.
# Transport of Compound I across MDCKII monolayers. […] To exclude any contribution of P-gp (12), the P-gp inhibitor zosuquidar (5 μM) is added (18).
effect on Bcrp1-mediated transport of Compound I [2],"net active transport of Compound I by Bcrp1 ([3]; 1 and 10 μM Compound I, MDCKII-Bcrp1 and parental cells, P-gp inhibitor zosuquidar 5 μM added)","concentration above which Bcrp1 transport of Compound I is saturable ([3]; MDCKII-Bcrp1, zosuquidar 5 μM added)",Compound,P-gp inhibition [1]
inhibit,,,COc1cc2c(cc1OC)CN(CCc1ccc(NC(=O)c3cccc4c(=O)c5cccc(OC)c5[nH]c34)cc1)CC2 [elacridar],70-80%
,approximately 20 % per h,above 10 μM,Cc1ccc(NC(=O)c2ccc(CN3CCN(C)CC3)cc2)cc1Nc1nccc(-c2cccnc2)n1 [Compound I],
